Reference: ChEMBL document CHEMBL1201862, “PubChem BioAssay data set” (2004)
The source made the active and inactive calls.

Legend:
[1] = target: Tyrosine-protein phosphatase non-receptor type 11 (Homo sapiens, UniProt Q06124); test: SHP2 phosphatase inhibition, dose response, selectivity assay for STEP inhibitor project, biochemical (AID 602367); format: functional; conditions: read-out: IC50_Mean
[2] = target: Dual specificity protein phosphatase 3 (Homo sapiens, UniProt P51452); test: VHR phosphatase inhibition, dose response, selectivity assay for STEP inhibitor project, biochemical (AID 602374); format: functional; conditions: read-out: IC50_Mean
Dual specificity protein phosphatase 3, sequence (P51452 whole entry): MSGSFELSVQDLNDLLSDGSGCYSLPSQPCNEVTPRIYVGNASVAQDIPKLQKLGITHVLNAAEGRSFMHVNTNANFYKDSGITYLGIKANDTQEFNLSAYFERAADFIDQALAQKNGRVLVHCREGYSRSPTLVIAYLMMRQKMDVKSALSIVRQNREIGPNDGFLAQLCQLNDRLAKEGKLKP

[3] = target: Tyrosine-protein phosphatase non-receptor type 5 (Homo sapiens, UniProt P54829); test: STEP phosphatase inhibitors, confirmation, biochemical, fluorescence intensity, uHTS hits (AID 602372); format: functional; conditions: read-out: IC50_Mean
Tyrosine-protein phosphatase non-receptor type 5, sequence (P54829 whole entry): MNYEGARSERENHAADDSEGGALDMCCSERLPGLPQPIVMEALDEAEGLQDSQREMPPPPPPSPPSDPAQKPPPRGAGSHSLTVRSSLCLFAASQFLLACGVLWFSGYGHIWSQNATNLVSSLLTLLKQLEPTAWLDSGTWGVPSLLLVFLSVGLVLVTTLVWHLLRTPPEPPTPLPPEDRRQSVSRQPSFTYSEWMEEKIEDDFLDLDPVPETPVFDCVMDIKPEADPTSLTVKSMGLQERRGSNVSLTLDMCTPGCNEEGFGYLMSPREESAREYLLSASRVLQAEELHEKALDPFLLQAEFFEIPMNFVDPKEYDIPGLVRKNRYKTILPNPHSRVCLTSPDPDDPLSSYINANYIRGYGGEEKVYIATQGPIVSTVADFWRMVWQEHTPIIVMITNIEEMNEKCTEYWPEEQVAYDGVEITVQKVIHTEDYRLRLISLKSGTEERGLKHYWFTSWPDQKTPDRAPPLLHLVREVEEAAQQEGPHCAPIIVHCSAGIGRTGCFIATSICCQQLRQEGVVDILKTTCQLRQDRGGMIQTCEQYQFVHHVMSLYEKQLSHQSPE

[4] = target: T1, Probable nicotinate-nucleotide adenylyltransferase (Staphylococcus aureus (strain N315), UniProt P65502); format: functional, Staphylococcus aureus subsp. aureus N315; conditions: read-out: IC50_Mean;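 for IC50 Mean: confirmatory dose-response retesting of NadD inhibitor hits first found in an ultra-high-throughput screen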
T1 sequence (P65502 whole entry): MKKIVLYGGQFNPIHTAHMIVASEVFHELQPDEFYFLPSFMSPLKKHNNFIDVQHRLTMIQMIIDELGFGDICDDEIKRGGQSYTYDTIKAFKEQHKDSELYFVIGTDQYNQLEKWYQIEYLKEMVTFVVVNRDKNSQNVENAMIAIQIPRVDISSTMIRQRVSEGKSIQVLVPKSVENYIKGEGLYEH

[5] = microbe, parasite or virus in culture; format: functional; conditions: Mycobacterium tuberculosis
Cytochrome P450 1A2 = target: T2, Cytochrome P450 1A2 (Homo sapiens, UniProt P05177);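 note: PubChem cytochrome P450 panel assay, CYP1A2 panel member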
T2 sequence (P05177 whole entry): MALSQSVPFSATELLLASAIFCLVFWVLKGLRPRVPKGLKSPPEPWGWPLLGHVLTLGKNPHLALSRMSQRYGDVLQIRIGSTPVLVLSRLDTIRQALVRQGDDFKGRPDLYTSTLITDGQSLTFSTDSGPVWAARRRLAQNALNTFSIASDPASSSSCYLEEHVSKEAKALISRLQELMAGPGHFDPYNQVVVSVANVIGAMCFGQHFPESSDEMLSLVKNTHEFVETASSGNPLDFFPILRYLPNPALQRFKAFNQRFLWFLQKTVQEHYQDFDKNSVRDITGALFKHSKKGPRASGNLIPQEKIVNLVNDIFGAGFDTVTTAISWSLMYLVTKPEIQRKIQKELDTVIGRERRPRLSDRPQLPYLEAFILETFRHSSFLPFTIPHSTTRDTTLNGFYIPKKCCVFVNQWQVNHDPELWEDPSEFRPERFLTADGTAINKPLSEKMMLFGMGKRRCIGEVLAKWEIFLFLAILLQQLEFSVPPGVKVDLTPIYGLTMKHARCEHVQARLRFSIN

[6] = target: T1, Probable nicotinate-nucleotide adenylyltransferase; format: functional, Staphylococcus aureus subsp. aureus N315
[7] = target: Botulinum neurotoxin type F (Clostridium botulinum, UniProt P30996); test: High-throughput multiplex microsphere dose response for inhibitors of toxin protease, specifically Botulinum neurotoxin light chain F protease, compounds from Cherry Pick 02.; format: functional; conditions: read-out: EC50_MICROM
Botulinum neurotoxin type F, sequence (P30996 1-436 limits assumed): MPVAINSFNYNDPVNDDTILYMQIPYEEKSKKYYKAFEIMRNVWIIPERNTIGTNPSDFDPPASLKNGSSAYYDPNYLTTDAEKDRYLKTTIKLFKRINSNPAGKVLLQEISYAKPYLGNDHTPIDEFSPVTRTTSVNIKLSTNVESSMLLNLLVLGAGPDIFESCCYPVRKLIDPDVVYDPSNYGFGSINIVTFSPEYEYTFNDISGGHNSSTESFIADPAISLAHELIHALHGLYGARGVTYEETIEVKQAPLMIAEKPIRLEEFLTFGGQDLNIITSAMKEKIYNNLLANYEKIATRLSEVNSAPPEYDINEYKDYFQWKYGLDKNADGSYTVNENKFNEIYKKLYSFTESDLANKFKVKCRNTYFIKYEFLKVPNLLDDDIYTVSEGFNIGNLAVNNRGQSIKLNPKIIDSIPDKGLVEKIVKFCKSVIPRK

[8] = NIH/3T3 fibroblast cytotoxicity, dose response, cytotoxicity control for T. cruzi growth inhibitor project, cell-based, cherry-pick samples, set 2 (AID 651817); format: functional; conditions: NIH3T3
[9] = target: T3, Calpain-2 catalytic subunit (Sus scrofa, UniProt P43367); test: pig calpain II inhibitor potency, dose response, biochemical, fluorogenic peptide substrate (AID 1420); format: functional
T3 sequence (P43367 whole entry): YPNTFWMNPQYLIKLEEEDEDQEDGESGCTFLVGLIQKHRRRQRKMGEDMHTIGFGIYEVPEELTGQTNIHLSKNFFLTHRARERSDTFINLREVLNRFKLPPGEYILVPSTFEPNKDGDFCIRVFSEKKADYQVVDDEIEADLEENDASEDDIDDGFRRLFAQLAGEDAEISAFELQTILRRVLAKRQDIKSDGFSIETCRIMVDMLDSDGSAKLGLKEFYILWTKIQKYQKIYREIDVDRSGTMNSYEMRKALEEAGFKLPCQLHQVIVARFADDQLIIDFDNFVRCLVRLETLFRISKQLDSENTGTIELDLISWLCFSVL

[10] = target: T4, Low molecular weight phosphotyrosine protein phosphatase (Homo sapiens, UniProt P24666); format: functional; conditions: read-out: IC50_Mean
T4 sequence (P24666 whole entry): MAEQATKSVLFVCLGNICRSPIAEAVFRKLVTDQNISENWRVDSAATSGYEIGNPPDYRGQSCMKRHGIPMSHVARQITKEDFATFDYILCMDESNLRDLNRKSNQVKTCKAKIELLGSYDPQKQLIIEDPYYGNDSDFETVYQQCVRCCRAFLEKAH

[11] = target: T4, Low molecular weight phosphotyrosine protein phosphatase; format: functional; conditions: read-out: IC50_Mean; remark: listed apart in the source
[12] = AlphaScreen signal interference compounds, dose response, artefact control for ARNT-TACC3 interaction inhibitor project, biochemical, luminescence, cherry-pick (AID 651705); format: functional;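 note: AlphaScreen bead proximity signal that flags compounds interfering with the detection technology; potency reflects signal decrease which marks the compound as an assay artifact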
Interleukin-8 [13] = target: T5, Interleukin-8 (Homo sapiens, UniProt P10145); test: Dose Response confirmation of uHTS small molecule hits for cystic fibrosis induced NFkb Inhibitors in a PAF-induced IL8 counterscreen.; format: functional; conditions: read-out: IC50_Mean
T5 sequence (P10145 whole entry): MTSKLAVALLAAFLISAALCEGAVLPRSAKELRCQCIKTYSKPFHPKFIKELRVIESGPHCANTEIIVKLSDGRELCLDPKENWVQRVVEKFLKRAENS

Interleukin-8 [14] = target: T5, Interleukin-8; test: Dose Response confirmation of uHTS small molecule hits for cystic fibrosis induced NFkb Inhibitors in a TNFa-induced IL8 counterscreen.; format: functional; conditions: read-out: IC50_Mean

Tyrosine-protein phosphatase non-receptor type 11, sequence (Q06124 whole entry): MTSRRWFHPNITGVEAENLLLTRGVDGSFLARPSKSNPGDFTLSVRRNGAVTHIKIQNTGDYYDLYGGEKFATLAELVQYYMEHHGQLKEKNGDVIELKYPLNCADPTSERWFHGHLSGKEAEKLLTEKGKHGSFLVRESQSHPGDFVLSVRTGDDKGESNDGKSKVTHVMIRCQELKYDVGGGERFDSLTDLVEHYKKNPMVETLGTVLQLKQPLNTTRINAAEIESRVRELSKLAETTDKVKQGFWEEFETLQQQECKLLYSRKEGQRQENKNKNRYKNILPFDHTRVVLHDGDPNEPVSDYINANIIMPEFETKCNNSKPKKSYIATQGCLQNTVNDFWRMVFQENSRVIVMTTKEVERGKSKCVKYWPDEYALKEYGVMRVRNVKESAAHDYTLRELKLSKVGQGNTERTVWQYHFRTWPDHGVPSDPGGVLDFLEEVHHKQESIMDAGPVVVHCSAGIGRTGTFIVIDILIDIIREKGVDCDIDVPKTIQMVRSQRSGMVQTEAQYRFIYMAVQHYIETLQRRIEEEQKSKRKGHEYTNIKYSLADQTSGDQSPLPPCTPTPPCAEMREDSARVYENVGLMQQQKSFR

Cc1ccc(Cn2cc(C=O)c(-c3ccc(C)cc3)n2)cc1
IC50 [1]: > 80 µM (inactive) | IC50 [2]: 73.9 µM (inactive) | IC50 [3]: > 80 µM (inactive)

O=c1/c(=C\c2ccc(O)cc2)sc2n1C(c1ccccc1)C(c1ccccc1)=NN=2 (stereo not given)
IC50 [4]: 32.1 µM (active) | CC50 [5]: 33 µM (active) | AC50 (Cytochrome P450 1A2): 4.47 µM (inconclusive) | IC50 [6]: 13.7 µM (active)

O=C(O)CN1CCN(CC(=O)O)CCN(CC(=O)O)CCN(CC(=O)O)CC1 [TETRAXETAN]
EC50 [7]: > 20 µM (inactive)

C[C@H](CO)N1C[C@H](C)[C@H](CN(C)Cc2ccc(C(F)(F)F)cc2)Oc2c(NC(=O)c3ccncc3)cccc2C1=O
AC50 [8]: 39 µM (inactive)

c1ccc(-c2cc(N3CCCCC3)c3ccccc3n2)cc1
IC50 [9]: 3.92 µM (not active) | IC50 [10]: 9.25 µM (active) | IC50 [11]: 14 µM (active)

O=S(=O)(c1ccc(Br)cc1)c1nc(-c2ccco2)oc1NCCCn1ccnc1
AC50 [12]: 108 µM (active)

O=S1(=O)CC=C(CSC(=S)NC2CCS(=O)(=O)C2)C1 (stereo not given)
IC50 (Interleukin-8 [13]): 2.06 µM (active) | IC50 (Interleukin-8 [14]): 3.68 µM (active)
